In PubChem BioAssay (NCI):
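Values below derive from 48-hour exposures of cells grown in 96-well plates, with endpoints linearly interpolated between the two concentrations bracketing the appropriate inhibition level. TGI marks complete inhibition of growth.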

Assays:
Assay in all cases: NCI-60 cell line screen, 48 h
[1] = system: 786-0 renal
[2] = system: A498 renal
[3] = system: A549 NSCLC
[4] = system: ACHN renal
[5] = system: BT-549 breast
[6] = system: CAKI-1 renal
[7] = system: CCRF-CEM leukemia
[8] = system: COLO 205 colon
[9] = system: DU-145 prostate
[10] = system: EKVX NSCLC
[11] = system: HCC-2998 colon
[12] = system: HCT-116 colon
[13] = system: HCT-15 colon
[14] = system: HL-60(TB) leukemia
[15] = system: HOP-92 NSCLC
[16] = system: HS 578T breast
[17] = system: HT29 colon
[18] = system: IGROV1 ovarian
[19] = system: K-562 leukemia
[20] = system: KM12 colon
[21] = system: LOX IMVI melanoma
[22] = system: M14 melanoma
[23] = system: MALME-3M melanoma
[24] = system: MCF7 breast
[25] = system: MDA-MB-231 breast
[26] = system: MDA-MB-435
[27] = system: MOLT-4 leukemia
[28] = system: NCI-H226 lung
[29] = system: NCI-H23 lung
[30] = system: NCI-H460 lung
[31] = system: NCI-H522 lung
[32] = system: NCI/ADR-RES ovarian
[33] = system: OVCAR-3 ovarian
[34] = system: OVCAR-4 ovarian
[35] = system: OVCAR-5 ovarian
[36] = system: OVCAR-8 ovarian
[37] = system: PC-3 prostate
[38] = system: RXF 393 renal
[39] = system: SF-268 CNS
[40] = system: SF-295 CNS
[41] = system: SF-539 CNS
[42] = system: SK-MEL-2 melanoma
[43] = system: SK-MEL-28 melanoma
[44] = system: SK-MEL-5 melanoma
[45] = system: SK-OV-3 ovarian
[46] = system: SN12C renal
[47] = system: SNB-19 CNS
[48] = system: SW-620 colon
[49] = system: T-47D breast
[50] = system: TK-10 renal
[51] = system: U251 CNS
[52] = system: UACC-257 melanoma
[53] = system: UACC-62 melanoma
[54] = system: UO-31 renal

`N#CC(NCCc1ccccc1)c1ccc(C(C#N)NCCc2ccccc2)cc1` (centres undefined) showed a TGI [1] of over 100 µM, a TGI [2] of over 100 µM and a TGI [3] of over 100 µM. The TGI [4] was over 100 µM, the TGI [5] was 56.1 µM and the TGI [6] was over 100 µM. For the same compound, the TGI [7] was 65.7 µM, the TGI [8] was over 100 µM and the TGI [9] was over 100 µM. It also gave a TGI [10] of over 100 µM, a TGI [11] of over 100 µM and a TGI [12] of over 100 µM. For the same compound, the TGI [13] was over 100 µM, the TGI [14] was 40.8 µM and the TGI [15] was over 100 µM. It also gave a TGI [16] of over 100 µM, a TGI [17] of over 100 µM and a TGI [18] of over 100 µM. The TGI [19] was 70.6 µM, the TGI [20] was over 100 µM and the TGI [21] was over 100 µM. For the same compound, the TGI [22] was over 100 µM, the TGI [23] was over 100 µM and the TGI [24] was over 100 µM. The TGI [25] was over 100 µM, the TGI [26] was over 100 µM and the TGI [27] was over 100 µM. It also gave a TGI [28] of over 100 µM, a TGI [29] of over 100 µM and a TGI [30] of over 100 µM. The TGI [31] was over 100 µM, the TGI [32] was 57.5 µM and the TGI [33] was over 100 µM. For the same compound, the TGI [34] was over 100 µM, the TGI [35] was over 100 µM and the TGI [36] was over 100 µM. The TGI [37] was over 100 µM, the TGI [38] was over 100 µM and the TGI [39] was over 100 µM. For the same compound, the TGI [40] was over 100 µM, the TGI [41] was over 100 µM and the TGI [42] was over 100 µM. For the same compound, the TGI [43] was over 100 µM, the TGI [44] was over 100 µM and the TGI [45] was over 100 µM. The TGI [46] was over 100 µM, the TGI [47] was over 100 µM and the TGI [48] was over 100 µM. For the same compound, the TGI [49] was over 100 µM, the TGI [50] was over 100 µM and the TGI [51] was over 100 µM. The TGI [52] was over 100 µM, the TGI [53] was over 100 µM and the TGI [54] was over 100 µM.
